Measured values: the supplement of paper PMC10307832

Columns and labels:
Assay in all cases: relative viability (nuclei count vs DMSO), 5 days (fraction); higher = more cells survive
RAF265 = compound: Cn1c(Nc2ccc(C(F)(F)F)cc2)nc2cc(Oc3ccnc(-c4ncc(C(F)(F)F)[nH]4)c3)ccc21 [RAF265]
Outline: (§1)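 Lung cancer cell lines received five library-drug doses (not always all listed) spaced by √10, pinned on vehicle-anchored 1536-well plates after an overnight stay at 37 °C. Five days later, with no medium change, nuclei were Hoechst-stained, imaged at 4× and counted with MetaXpress. Viability is treated-well nuclei relative to vehicle-well nuclei, as a median across plates. Passing plates had control CV below 25% and at least one doubling.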

IPA-3 = compound: C1=CC=C2C(=C1)C=CC(=C2SSC3=C(C=CC4=CC=CC=C43)O)O [IPA-3]
Outline: as §1

Doramapimod = compound: Cc1ccc(-n2nc(C(C)(C)C)cc2NC(=O)Nc2ccc(OCCN3CCOCC3)c3ccccc23)cc1 [Doramapimod]
Outline: as §1

Doramapimod + Vorinostat = compound: Cc1ccc(-n2nc(C(C)(C)C)cc2NC(=O)Nc2ccc(OCCN3CCOCC3)c3ccccc23)cc1 [Doramapimod] + O=C(CCCCCCC(=O)Nc1ccccc1)NO [Vorinostat] (partner 1 µM)
Outline: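 Lung cancer cell lines were pin-tool dosed in 1536-well plates on the day after seeding, with either a lone drug or a fixed anchor-drug dose plus five library-drug doses (not always all listed) in √10 steps. Nuclei were counted on 4× images after 5 days. Relative viability is the ratio of treated-well to vehicle-well nuclei counts, with each value a median of duplicate plates.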

Cell Line: UMC-11
- relative viability (RAF265; 0.01 µM): 0.975
- relative viability (RAF265; 0.03162 µM): 0.95
- relative viability (RAF265; 0.1 µM): 0.942
- relative viability (RAF265; 0.3162 µM): 0.948
- relative viability (RAF265; 1 µM): 0.872
- relative viability (IPA-3; 0.2 µM): 1.08
- relative viability (IPA-3; 0.6325 µM): 0.932
- relative viability (IPA-3; 2 µM): 0.967
- relative viability (IPA-3; 6.325 µM): 0.916
- relative viability (IPA-3; 20 µM): 1.09
- relative viability (Doramapimod; 0.02 µM): 0.904
- relative viability (Doramapimod; 0.06325 µM): 0.934
- relative viability (Doramapimod; 0.2 µM): 0.956
- relative viability (Doramapimod; 0.6325 µM): 0.782
- relative viability (Doramapimod; 2 µM): 0.841
- relative viability (Doramapimod + Vorinostat; first compound 0.02 µM): 0.371
- relative viability (Doramapimod + Vorinostat; first compound 0.06325 µM): 0.33
- relative viability (Doramapimod + Vorinostat; first compound 0.2 µM): 0.423
- relative viability (Doramapimod + Vorinostat; first compound 0.6325 µM): 0.316
- relative viability (Doramapimod + Vorinostat; first compound 2 µM): 0.379
